Experimental data taken from patent US12440496B2, “Natriuretic peptide receptor a agonists useful for the treatment of cardiometabolic diseases, kidney disease and diabetes” (Merck Sharp & Dohme LLC, priority 2019, dated 2025).
Counter-ions that a name gives are not always drawn.

Target: T1, hNPRA (Homo sapiens, UniProt P16066)
T1 construct: expressed in transfected cells
T1 sequence (P16066 33-1061): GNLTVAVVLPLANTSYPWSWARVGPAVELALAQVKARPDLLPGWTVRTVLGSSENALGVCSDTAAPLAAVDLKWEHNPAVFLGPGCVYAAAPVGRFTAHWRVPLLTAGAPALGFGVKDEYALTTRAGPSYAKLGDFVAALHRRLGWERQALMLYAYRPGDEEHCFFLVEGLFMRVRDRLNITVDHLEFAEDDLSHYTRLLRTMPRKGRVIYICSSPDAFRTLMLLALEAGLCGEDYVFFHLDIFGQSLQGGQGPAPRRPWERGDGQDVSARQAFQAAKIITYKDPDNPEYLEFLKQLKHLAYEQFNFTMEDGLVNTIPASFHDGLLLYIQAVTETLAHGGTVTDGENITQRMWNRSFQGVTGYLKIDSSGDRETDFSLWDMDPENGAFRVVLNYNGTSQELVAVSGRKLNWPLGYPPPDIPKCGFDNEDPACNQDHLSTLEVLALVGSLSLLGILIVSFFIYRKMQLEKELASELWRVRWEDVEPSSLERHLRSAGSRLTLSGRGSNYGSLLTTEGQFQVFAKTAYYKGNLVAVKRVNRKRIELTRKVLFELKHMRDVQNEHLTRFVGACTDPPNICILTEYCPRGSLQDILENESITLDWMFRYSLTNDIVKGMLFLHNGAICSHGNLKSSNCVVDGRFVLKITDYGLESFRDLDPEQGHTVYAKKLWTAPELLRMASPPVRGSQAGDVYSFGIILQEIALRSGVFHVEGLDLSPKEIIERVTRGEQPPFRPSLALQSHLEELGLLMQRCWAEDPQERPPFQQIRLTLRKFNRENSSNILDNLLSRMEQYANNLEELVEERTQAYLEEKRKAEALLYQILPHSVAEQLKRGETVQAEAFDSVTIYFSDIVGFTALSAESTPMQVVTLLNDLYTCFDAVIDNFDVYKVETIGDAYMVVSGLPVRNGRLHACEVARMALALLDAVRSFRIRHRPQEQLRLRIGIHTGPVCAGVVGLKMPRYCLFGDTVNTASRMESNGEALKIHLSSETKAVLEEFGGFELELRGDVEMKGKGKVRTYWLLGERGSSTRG
Assay: NPRA Functional Cell Assay (cGMP HTRF, NPRA HEK JumpIn stable cells)
Type: cell-based
Conditions: cGMP production, 1 hour at 37° C., 10-point dose response
Outline: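 cGMP HTRF read-out after 1 hour compound treatment at 37° C. of human NPRA-expressing HEK JumpIn cells, 1500 cells/well, in buffer with phosphodiesterase inhibitors IBMX and RO20 (100 uM each). Signal converted to [cGMP] by calibration curve; EC50s fitted by 4-parameter logistic; 50 nM h-ANP as positive response.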

EC50 [nM] | SMILES
682 | CC(C)(C)[C@H]1CCc2nc3sc(C(=O)N[C@H](CCN4CCC(O)CC4)c4cccc(C(=O)NCCN5CCOCC5)c4)nc3cc2C1 (racemic) [Example 150, rac-(7S)-7-tert-butyl-N-[rac-(1R)-3-(4-hydroxy-1-piperidyl)-1-[3-(2-morpholinoethylcarbamoyl)phenyl]propyl]-5,6,7,8-tetrahydrothiazolo[5,4-b]quinoline-2-carboxamide]
182 | CC(C)(C)[C@H]1CCc2nc3sc(C(=O)N[C@H](CCN4CCC(O)CC4)c4ccc(N5CCOCS5(=O)=O)nc4)nc3cc2C1 [Example 273, (S)-7-(tert-butyl)-N-((R)-1-(6-(3,3-dioxido-1,3,4-oxathiazinan-4-yl)pyridin-3-yl)-3-(4-hydroxypiperidin-1-yl)propyl)-5,6,7,8-tetrahydrothiazolo[5,4-b]quinoline-2-carboxamide]
447 | CC(C)(C)[C@H]1CCc2nc3sc(C(=O)N[C@H](CCN4CC[C@@H](C(=O)O)[C@@H](F)C4)c4ccc(-c5cnc(O)c(F)c5)cc4)nc3cc2C1 (racemic) [Example 201, rac-(3R,4S)-3-fluoro-1-[rac-(3R)-3-[4-(5-fluoro-6-hydroxy-3-pyridyl)phenyl]-3-[[rac-(7S)-7-tert-butyl-5,6,7,8-tetrahydrothiazolo[5,4-b]quinoline-2-carbonyl]amino]propyl]piperidin-1-ium-4-carboxylic acid; formate]
665 | CC(C)(C)[C@H]1CCc2nc3sc(C(=O)N[C@H](CCN4CCC(O)CC4)c4ccc(OCCO)nc4)nc3cc2C1 (racemic) [Example 192, rac-(7S)-7-tert-butyl-N-[rac-(1R)-1-[6-(2-hydroxyethoxy)-3-pyridyl]-3-(4-hydroxy-1-piperidyl)propyl]-5,6,7,8-tetrahydrothiazolo[5,4-b]quinoline-2-carboxamide]
942 | CC(C)(C)[C@H]1CCc2nc3sc(C(=O)N[C@H](CCNC4(CO)CCC4)c4cccc(NS(C)(=O)=O)c4)cc3cc2C1 (racemic) [Example 15, ammonium; methylsulfonyl-1-[3-[rac-(1R)-3-[[1-(hydroxymethyl)cyclobutyl]amino]-1-[[rac-(6S)-6-tert-butyl-5,6,7,8-tetrahydrothieno[2,3-b]quinoline-2-carbonyl]amino]propyl]phenyl] azanide]
1790 | CC(C)(C)[C@H]1CCc2nc3sc(C(=O)N[C@H](CCN4CCC(c5ccccn5)CC4)c4cccc(NS(C)(=O)=O)c4)cc3cc2C1 (racemic) [Example 23, ammonium;methylsulfonyl-[3-[rac-(1R)-3-[4-(2-pyridyl)-1-piperidyl]-1-[[rac-(6S)-6-tert-butyl-5,6,7,8-tetrahydrothieno[2,3-b]quinoline-2carbonyl]amino]propyl]phenyl]azanide]
2040 | CC(C)C1(F)CCc2nc3sc(C(=O)N[C@H](CCN4CCC(O)CC4)c4ccc(N5CCOC5=O)cc4)nc3cc2C1 (stereo partly drawn) [Example 233, 7-fluoro-N-((R)-3-(4-hydroxypiperidin-1-yl)-1-(4-(2-oxooxazolidin-3-yl)phenyl)propyl)-7-isopropyl-5,6,7,8-tetrahydrothiazolo[5,4-b]quinoline-2-carboxamide]
889 | CC(C)(C)[C@H]1CCc2nc3sc(C(=O)N[C@H](CCNC4CNC(=O)C4)c4ccc(-c5ccc(=O)[nH]c5)cc4)cc3cc2C1 (mixture of isomers) [Example 57, (5-oxopyrrolidin-3-yl)-[rac-(3R)-3-[4-(6-oxo-1H-pyridin-3-yl)phenyl]-3-[[rac-(6S)-6-tert-butyl-5,6,7,8-tetrahydrothieno[2,3-b]quinoline-2-carbonyl]amino]propyl] ammonium;formate]
2200 | CCN(CC)CCC(NC(=O)c1cc2cc3c(nc2s1)CC[C@H](C(C)(C)C)C3)c1ccccc1 (stereo partly drawn) [Example 244, (6S)-6-tert-butyl-N-[3-(diethylamino)-1-phenylpropyl]-5,6,7,8-tetrahydrothieno[2,3-b]quinoline-2-carboxamide]
940 | CC(C)(C)[C@H]1CCc2nc3sc(C(=O)NC(CCN4CCCC4)c4ccncc4)nc3cc2C1 (stereo partly drawn) [Example 272, (7S)-7-(tert-butyl)-N-(1-(pyridin-4-yl)-3-(pyrrolidin-1-yl)propyl)-5,6,7,8-tetrahydrothiazolo[5,4-b]quinoline-2-carboxamide]
146 | CN1CC(NC(=O)c2cccc([C@@H](CCN3CCC(CC(=O)O)CC3)NC(=O)c3nc4cc5c(nc4s3)CC[C@H](C(C)(C)C)C5)c2)C1 (racemic) [Example 101, 2-[1-[rac-(3R)-3-[3-[(1-methylazetidin-1-ium-3-yl)carbamoyl]phenyl]-3-[[rac-(7S)-7-tert-butyl-5,6,7,8-tetrahydrothiazolo [5,4-b]quinoline-2-carbonyl]amino]propyl]-4-piperidyl]acetic acid; 2,2,2-trifluoroacetate]
677 | CN(C)S(=O)(=O)Nc1ccc([C@@H](CCN2CCC(O)CC2)NC(=O)c2nc3cc4c(nc3s2)CC[C@H](C(C)(C)C)C4)cc1F [Example 226, (S)-7-(tert-butyl)-N-((R)-1-(4-((N,N-dimethylsulfamoyl)amino)-3-fluorophenyl)-3-(4-hydroxypiperidin-1-yl)propyl)-5,6,7,8-tetrahydrothiazolo[5,4-b]quinoline-2-carboxamide]
725 | CC1([C@H]2CCc3nc4sc(C(=O)N[C@H](CCN5CCC(O)CC5)c5ccc(N6CCOC6=O)cc5)nc4cc3C2)CC1 [Example 231, (S)-N-((R)-3-(4-hydroxypiperidin-1-yl)-1-(4-(2-oxooxazolidin-3-yl)phenyl)propyl)-7-(1-methylcyclopropyl)-5,6,7,8-tetrahydrothiazolo[5,4-b]quinoline-2-carboxamide]
735 | CN(CC[C@@H](NC(=O)c1nc2cc3c(nc2s1)CC[C@H](C(C)(C)C)C3)c1ccc(NS(=O)(=O)N(C)C)nc1)CC1(O)CC1 (racemic) [Example 209, (1-hydroxycyclopropyl)methyl-methyl-[rac-(3R)-3-[6-(dimethylsulfamoylamino)-3-pyridyl]-3-[[rac-(7S)-7-tert-butyl-5,6,7,8-tetrahydrothiazolo[5,4-b]quinoline-2-carbonyl]amino]propyl]ammonium; 2,2,2-trifluoroacetate]
622 | CC(C)(C)[C@H]1CCc2nc3sc(C(=O)N[C@H](CCN4CCC(O)CC4)c4cccc(N5CC6(CCNCC6)OC5=O)c4)nc3cc2C1 (racemic) [Example 116, rac-(7S)-7-tert-butyl-N-[rac-(1R)-3-(4-hydroxy-1-piperidyl)-1-[3-(2-oxo-1-oxa-3-aza-8-azoniaspiro [4.5]decan-3-yl)phenyl]propyl]-5,6,7,8-tetrahydrothiazolo[5,4-b] quinoline-2-carboxamide; 2,2,2-trifluoroacetate]
1500 | CC(C)(C)[C@H]1CCc2nc3sc(C(=O)N[C@H](CCN4CCC(O)CC4)c4ccc(Oc5ccc(O)cc5)nc4)nc3cc2C1 (racemic) [Example 194, ammonium; 4-[[5-[rac-(1R)-3-(4-hydroxy-1-piperidyl)-1-[[rac-(7S)-7-tert-butyl-5,6,7,8-tetrahydrothiazolo[5,4-b]quinoline-2-carbonyl]amino]propyl]-2-pyridyl]oxy]phenolate]
645 | CN(CCC(=O)O)CC[C@@H](NC(=O)c1nc2cc3c(nc2s1)CC[C@H](C(C)(C)C)C3)c1cccc(C(=O)NC2CN(C)C2)c1 (racemic) [Example 111, 3-[methyl-[rac-(3R)-3-[3-[(1-methylazetidin-1-ium-3-yl)carbamoyl]phenyl]-3-[[rac-(7S)-7-tert-butyl-5,6,7,8-tetrahydrothiazolo[5,4-b]quinoline-2-carbonyl]amino]propyl]amino] propanoic acid; 2,2,2-trifluoroacetate]
682 | CC(C)(C)[C@H]1CCc2nc3sc(C(=O)N[C@H](CCN4CCC(O)CC4)c4cccc(C(=O)NCCO)c4)nc3cc2C1 (racemic) [Example 151, rac-(7S)-7-tert-butyl-N-[rac-(1R)-1-[3-(2-hydroxyethylcarbamoyl)phenyl]-3-(4-hydroxy-1-piperidyl)propyl]-5,6,7,8-tetrahydrothiazolo[5,4-b]quinoline-2-carboxamide]
